{"source": "patent US20260182577A1", "about": "“COMBINATIONS TREATMENTS” (Aequor Inc., priority 2020, published 2026)", "key": {"[1]": {"test_system": "S. aureus ATCC 12600 biofilm", "assay": "Biofilm inhibition (MBIC), Syto 9 imaging", "format": "cell-based, Staphylococcus aureus", "description": "(§1) FIGS. 1A and 1B show biofilm inhibition by butyl phosphoramidate (BPA), sodium dodecylbenzenesulfonate (SDBS), and 4-Dodecylbenzenesulfonic acid (DBSA) against Staphylococcus aureus ATCC 12600 and E. coli ATCC 11775, which was determined by (A) measuring total intensity with Ex/Em (nm): 456/541 and (B) staining biofilm with Syto 9 green-fluorescent nucleic acid stain. Biofilm images appear white and gray and images without biofilm appear black. Images of untreated biofilm, sub-MBIC, and MBIC were taken using MiniMax 300 Imaging Cytometer (Molecular Devices).\n(§2) Imaging. Biofilm inhibition imaging was determined by growing biofilm in a black-walled optically-clear bottom 96 well plate at a 45° angle to promote biofilm formation prior to imaging. Biofilm was stained with Syto 9 green fluorescent live and dead nucleic acid stain and measuring total intensity with excitation/emission (nm): 456/541. Images of biofilm were taken using MiniMax 300 Imaging Cytometer (Molecular Devices)."}, "[2]": {"test_system": "Staphylococcus aureus MRSA ATCC 33591", "assay": "MIC broth microdilution, compounds and antibiotics alone and in combination", "format": "cell-based", "details": "for MIC: Staphylococcus aureus, read-out: Minimum Inhibitory Concentration (MIC); for MIC / Minimum Inhibitory Concentration (MIC): alone, or antibiotic with SDBS/DBSA at sub-MIC concentration", "description": "(§3) Antibiotic and Antibiofilm Susceptibility Tests. Minimum inhibitory concentration (MIC) broth microdilution method was performed according to CLSI guidelines (CLSI M07-A10: Methods for Dilution Antimicrobial Susceptibility Tests for Bacteria that Grow\n(§4) Aerobically; Approved Standard-Tenth Edition). Minimum bactericidal concentration (MBC) was performed according to CLSI guidelines (CLSI M26-A: Methods for Determining Bactericidal Activity of Antimicrobial Agents; Approved Guideline).\n(§5) The antibiotic resistance breakpoints were defined according to the recommendations of the Clinical and Laboratory Standards Institute (CLSI M07-A10: Methods for Dilution Antimicrobial Susceptibility Tests for Bacteria That Grow Aerobically; Approved Standard-Tenth Edition).\nFour antibiotics (penicillin G, methicillin, gentamycin, and vancomycin) were tested in combination with SDBS and DBSA, by using a checkerboard methodology against MRSA ATCC 33591 (methicillin-R, gentamicin-R; penicillin-R) and VRSA VRS7 BEI NR-46417 (methicillin-R, gentamicin-R; penicillin-R, vancomycin-R). The combinations were assessed by fractional inhibitory concentration indices (FICIs) and the fold reduction of the MIC (“potentiation factor”) was calculated. In clinical terms, a potentiator enhances the action of a drug. SDBS and […] potentiate methicillin, gentamicin, penicillin, and vancomycin activity against MRSA and VRSA making MRSA and VRSA sensitive to those antibiotics (Table 13)."}, "[3]": {"test_system": "Staphylococcus aureus VRSA VRS7 NR-46417", "assay": "MIC broth microdilution, compounds and antibiotics alone and in combination", "format": "cell-based", "details": "for MIC: Staphylococcus aureus, read-out: Minimum Inhibitory Concentration (MIC)", "description": "as §3, §4, §5\nFour antibiotics (penicillin G, methicillin, gentamycin, and vancomycin) were tested in combination with SDBS and DBSA, by using a checkerboard methodology against MRSA ATCC 33591 (methicillin-R, gentamicin-R; penicillin-R) and VRSA VRS7 BEI NR-46417 (methicillin-R, gentamicin-R; penicillin-R, vancomycin-R). The combinations were assessed by fractional inhibitory concentration indices (FICIs) and the fold reduction of the MIC (“potentiation factor”) was calculated. In clinical terms, a potentiator enhances the action of a drug."}, "[4]": {"test_system": "S. aureus ATCC 6358 biofilm", "assay": "Minimum biofilm eradicating concentration (MBEC) assay, ASTM E2799-12", "format": "cell-based, Staphylococcus aureus", "description": "Data corresponds to 4.4-Log reduction.\nMinimum biofilm eradicating concentration (MBEC) was performed according to the ASTM standard (ASTM E2799-12; Standard Test Method for Testing Disinfectant Efficacy against Pseudomonas aeruginosa Biofilm using the MBEC Assay). Assays were performed in quadruplicates on more than one occasion."}, "[5]": {"test_system": "E. coli ATCC 11775 biofilm", "assay": "Biofilm inhibition (MBIC), Syto 9 imaging", "format": "cell-based", "description": "as §1, §2"}, "B. cepacia biofilm": {"test_system": "B. cepacia biofilm", "assay": "Biofilm inhibition (MBIC)", "format": "cell-based, Burkholderia cepacia", "description": "as §2"}, "[6]": {"test_system": "P. aeruginosa type 2 mucoid ATCC 33468", "assay": "MIC broth microdilution", "format": "cell-based, Pseudomonas aeruginosa", "description": "as §3, §4"}, "[7]": {"details": "VRSA VRS7 NR-46417, alone, or antibiotic with SDBS/DBSA at sub-MIC concentration"}}, "note": "“And” between values parts separate entries of the source, which are not always exact repeats. Equal entries are not always repeated. Where two headings read alike, the source gives them in different places."}
{"compound": "CCCCCCCCCCCCc1ccc(S(=O)(=O)O)cc1", "note": "[DBSA, 4-Dodecylbenzenesulfonic acid]", "values": [{"measurement": "MBIC (inhibition of biofilm formation)", "setting": "[1]", "result": 100, "unit": "µg/mL"}, {"measurement": "MIC", "setting": "[2]", "result": 19, "unit": "µg/mL"}, {"measurement": "MIC", "setting": "[3]; [7]", "result": "> 20", "unit": "µg/mL"}]}
{"compound": "COc1cccc(OC)c1C(=O)N[C@@H]1C(=O)N2[C@@H]1SC(C)(C)[C@@H]2C(=O)O", "note": "[Methicillin, methicillin]", "values": [{"measurement": "Resistant / sensitive by CLSI breakpoints", "setting": "[2]", "result": "(R)"}, {"measurement": "MIC", "setting": "[2]", "result": "> 22.7", "unit": "µg/mL"}, {"measurement": "MIC", "setting": "[3]; [7]", "result": "> 22.7", "unit": "µg/mL"}, {"measurement": "Resistant / sensitive by CLSI breakpoints", "setting": "[3]; VRSA VRS7 NR-46417", "result": "(R)"}]}
{"compound": "CC1(C)S[C@@H]2[C@H](NC(=O)Cc3ccccc3)C(=O)N2[C@H]1C(=O)O", "note": "[Penicillin, penicillin G]", "values": [{"measurement": "Resistant / sensitive by CLSI breakpoints", "setting": "[2]", "result": "(R)"}, {"measurement": "MIC", "setting": "[2]", "result": "> 22.7", "unit": "µg/mL"}, {"measurement": "MIC", "setting": "[3]; [7]", "result": 11.3, "unit": "µg/mL"}, {"measurement": "Resistant / sensitive by CLSI breakpoints", "setting": "[3]; VRSA VRS7 NR-46417", "result": "(R)"}]}
{"compound": "CCCCCCCCCCCCOS(=O)(=O)[O-].[Na+]", "note": "[SDS, sodium dodecyl sulfate]", "values": [{"measurement": "MBIC (inhibition of biofilm formation)", "setting": "[1]", "result": 140, "unit": "µg/mL"}]}
{"compound": "CN[C@H](CC(C)C)C(=O)N[C@H]1C(=O)N[C@@H](CC(N)=O)C(=O)N[C@H]2C(=O)N[C@H]3C(=O)N[C@H](C(=O)N[C@H](C(=O)O)c4cc(O)cc(O)c4-c4cc3ccc4O)[C@H](O)c3ccc(c(Cl)c3)Oc3cc2cc(c3O[C@@H]2O[C@H](CO)[C@@H](O)[C@H](O)[C@H]2O[C@H]2C[C@](C)(N)[C@H](O)[C@H](C)O2)Oc2ccc(cc2Cl)[C@H]1O", "note": "[Vancomycin, vancomycin]", "values": [{"measurement": "MIC", "setting": "[3]; VRSA", "result": 22.7, "unit": "µg/mL"}, {"measurement": "Resistant / sensitive by CLSI breakpoints", "setting": "[3]; VRSA VRS7 NR-46417", "result": "(R)"}]}
{"compound": "butyl phosphoramidate [BPA]", "values": [{"measurement": "Log reduction of viable cells", "setting": "[4]; after 10 minutes of exposure", "result": 4.4, "unit": "Log"}, {"measurement": "removal of biofilm", "setting": "[4]; after 10 minutes of exposure, colony counting CFU/ml", "result": 99.99, "unit": "%"}, {"measurement": "MBEC (removal of existing biofilm)", "setting": "[4]; demonstrated by Lonza", "result": "< 25", "unit": "µg/mL"}, {"measurement": "MBIC (inhibition of biofilm formation)", "setting": "[5]", "result": 50, "unit": "µg/mL"}, {"measurement": "MBIC (inhibition of biofilm formation)", "setting": "[1]", "result": 50, "unit": "µg/mL"}, {"measurement": "MBIC (inhibition of biofilm formation)", "setting": "B. cepacia biofilm", "result": 50, "unit": "µg/mL"}, {"measurement": "Minimum Inhibitory Concentration (MIC)", "setting": "[2]", "result": "25 µg/mL and 12.5 µg/mL"}, {"measurement": "Minimum Inhibitory Concentration (MIC)", "setting": "[6]", "result": "25 µg/mL and 12.5 µg/mL"}, {"measurement": "Minimum Inhibitory Concentration (MIC)", "setting": "[3]; [7]", "result": "25 µg/mL and 12.5 µg/mL"}]}
{"compound": "gentamicin", "values": [{"measurement": "Resistant / sensitive by CLSI breakpoints", "setting": "[2]", "result": "(R)"}, {"measurement": "Minimum Inhibitory Concentration (MIC)", "setting": "[2]", "result": ">45.4", "unit": "µg/mL"}, {"measurement": "Resistant / sensitive by CLSI breakpoints", "setting": "[3]; VRSA VRS7 NR-46417", "result": "(R)"}, {"measurement": "Minimum Inhibitory Concentration (MIC)", "setting": "[3]; [7]", "result": 22.7, "unit": "µg/mL"}]}
